What was measured:
MDA-MB-231 cells = experiment: CytoTox-Glo cytotoxicity assay with or without bafilomycin A1, 2 days; format: cell-based; details: 5 μM
[1] = test system: T-47D, HCC-1937, HS-578T, BT-474, MDA-MB-468, and MD-MB-453 cell lines; experiment: MTT cell viability of breast cancer cell line panel versus comparators, 48 hrs (FIG. 17); format: cell-based
CDK4/cyclin D1 = CDK4/cyclin D1 (Homo sapiens, UniProt P11802); experiment: CDK4/cyclin D1 In Vitro Kd, kinase binding assay (qPCR)
Method: Kinase-tagged T7 phage strains were prepared in an E. coli host derived from the BL21 strain. E. coli were grown to log-phase and infected with T7 phage and incubated with shaking at 32° C. until lysis. […] The remaining kinases were produced in HEK-293 cells and subsequently tagged with DNA for qPCR detection. […] The liganded beads were blocked with excess biotin and washed with blocking buffer (SeaBlock (Pierce), 1% BSA, 0.05% Tween 20, 1 mM DTT) to remove unbound ligand and to reduce non-specific binding. […] Test compounds were prepared as 111× stocks in 100% DMSO. Kds were determined using an 11-point 3-fold compound dilution series with three DMSO control points. […] The compounds were then diluted directly into the assays such that the final concentration of DMSO was 0.9%. All reactions performed in polypropylene 384-well plate. Each was a final volume of 0.02 ml. […] The kinase concentration in the eluates was measured by qPCR. […] Curves were fitted using a non-linear least square fit with the Levenberg-Marquardt algorithm.

BMP2K = molecular target: T1, BMP2K (Homo sapiens, UniProt Q9NSY1); experiment: CETSA-MS, MDA-MB-231 cell lysates and intact cells; format: cell-based; details: present in both MDA-MB-231 cell lysates and intact cells
T1 construct: endogenous in cells; host or cells: MDA-MB-231
Method: (§1) Following treatment, cell lysates were thermally treated in a thermal gradient profile across a temperature range. Following the thermal shift, cell lysates were spun by centrifuge to pellet aggregate protein and the supernatant withdrawn. The supernatant was then denatured in buffer and heated to denature, reduce, and alkylate the supernatant proteins. Following heating and cooling to room temperature, cold acetone was added to the supernatant samples and proteins precipitated.
(§2) TNBC MDA-MB-231 cells were grown at 37° C. in 5% CO2 and suspended in warm media and split into 4 equal volumes. […] Cells were incubated and then pelleted. Following pelleting, the cells were washed, resuspended, and heated in a thermal gradient. Following heating, the samples were flash frozen and lysed in lysis buffer, agitated by vortex, and sonicated prior to centrifugation. The supernatant was collected and denaturation buffer added. Cold acetone was then added to the cell samples, and protein collected by centrifugation. Pellets were then washed twice with cold acetone and the washed pellets prior to labeling.
(§3) The intact cell protein samples and lysate protein samples were then digested and labeled for mass spectrometry analysis according to the manufacturer's recommended protocols. Digested and labeled protein samples were analyzed by mass spectrometry proteomic analysis and the resulting protein targets were analyzed and plotted.

GSK3B = molecular target: T2, GSK3B (Homo sapiens, UniProt P49841); experiment: CETSA-MS, MDA-MB-231 cell lysates and intact cells; format: cell-based; details: present in both MDA-MB-231 cell lysates and intact cells
T2 construct: endogenous in cells; host or cells: MDA-MB-231
Method: as §1, §2, §3

AAK1 = molecular target: T3, AAK1 (Homo sapiens, UniProt Q2M2I8); experiment: CETSA-MS, MDA-MB-231 cell lysates and intact cells; format: cell-based; details: present in both MDA-MB-231 cell lysates and intact cells
T3 construct: endogenous in cells; host or cells: MDA-MB-231
Method: as §1, §2, §3

PyMT cells [2] = experiment: Growth and recovery, 6 days treatment and 4 days recovery, cell counts; format: cell-based, mouse; details: 6 days treatment, counted on days 0, 3, 6, 10
Source text: Following 6 days of treatment, the drug treatments were stopped and the cells allowed to recover for 4 days. Cell numbers were counted on days 0, 3, 6, and 10, and the results plotted.

BT-474 = experiment: MTT cell viability, 48 hours; format: cell-based; details: Homo sapiens, BT-474 (HR+ HER2+), read-out: 48 h-cell viability decrease
Method: (§4) A panel of […] breast cancer cell lines: T-47D, BT-474, MDA-MB-453, MDA-MB-468, HCC-1937, Hs578T, and MDA-MB-231, was treated for 48 hours with 5 μM Compound 1 and the cell viability was measured using the MTT assay. TABLE 6 summarizes the cell lines, and the change in viability after 48 hours of treatment with Compound 1.

MDA-MB-231 = experiment: MTT cell viability, 48 hours; format: cell-based; details: Homo sapiens, MDA-MB-231 (TNBC), read-out: 48 h-cell viability decrease
Method: as §4

MDA-MB-468 = experiment: MTT cell viability, 48 hours; format: cell-based; details: Homo sapiens, MDA-MB-468 (TNBC), read-out: 48 h-cell viability decrease
Method: as §4

T-47D = experiment: MTT cell viability, 48 hours; format: cell-based; details: Homo sapiens, T47D, T-47D (HR+ HER2−), read-out: 48 h-cell viability decrease
Method: as §4

HCC-1937 = experiment: MTT cell viability, 48 hours; format: cell-based; details: Homo sapiens, HCC1937, 48 h, HCC-1937 (TNBC), read-out: 48 h-cell viability decrease
Method: as §4

Hs578T = experiment: MTT cell viability, 48 hours; format: cell-based; details: Homo sapiens, Hs-578T, Hs578T (TNBC), read-out: 48 h-cell viability decrease
Method: as §4

MDA-MB-453 = experiment: MTT cell viability, 48 hours; format: cell-based; details: Homo sapiens, MDA-MB-453 (TNBC), read-out: 48 h-cell viability decrease
Method: as §4

CCL5 = experiment: qPCR of T-cell recruiting chemokine mRNA, PyMT cells; format: cell-based, mouse
PyMT cells [3] = experiment: MTT cell viability; format: cell-based, mouse; details: 24, 48 and 72 hours; Compound 1 2.5, 5, 10 μM; Comparator 1 5 μM

T3 sequence (Q2M2I8 whole entry): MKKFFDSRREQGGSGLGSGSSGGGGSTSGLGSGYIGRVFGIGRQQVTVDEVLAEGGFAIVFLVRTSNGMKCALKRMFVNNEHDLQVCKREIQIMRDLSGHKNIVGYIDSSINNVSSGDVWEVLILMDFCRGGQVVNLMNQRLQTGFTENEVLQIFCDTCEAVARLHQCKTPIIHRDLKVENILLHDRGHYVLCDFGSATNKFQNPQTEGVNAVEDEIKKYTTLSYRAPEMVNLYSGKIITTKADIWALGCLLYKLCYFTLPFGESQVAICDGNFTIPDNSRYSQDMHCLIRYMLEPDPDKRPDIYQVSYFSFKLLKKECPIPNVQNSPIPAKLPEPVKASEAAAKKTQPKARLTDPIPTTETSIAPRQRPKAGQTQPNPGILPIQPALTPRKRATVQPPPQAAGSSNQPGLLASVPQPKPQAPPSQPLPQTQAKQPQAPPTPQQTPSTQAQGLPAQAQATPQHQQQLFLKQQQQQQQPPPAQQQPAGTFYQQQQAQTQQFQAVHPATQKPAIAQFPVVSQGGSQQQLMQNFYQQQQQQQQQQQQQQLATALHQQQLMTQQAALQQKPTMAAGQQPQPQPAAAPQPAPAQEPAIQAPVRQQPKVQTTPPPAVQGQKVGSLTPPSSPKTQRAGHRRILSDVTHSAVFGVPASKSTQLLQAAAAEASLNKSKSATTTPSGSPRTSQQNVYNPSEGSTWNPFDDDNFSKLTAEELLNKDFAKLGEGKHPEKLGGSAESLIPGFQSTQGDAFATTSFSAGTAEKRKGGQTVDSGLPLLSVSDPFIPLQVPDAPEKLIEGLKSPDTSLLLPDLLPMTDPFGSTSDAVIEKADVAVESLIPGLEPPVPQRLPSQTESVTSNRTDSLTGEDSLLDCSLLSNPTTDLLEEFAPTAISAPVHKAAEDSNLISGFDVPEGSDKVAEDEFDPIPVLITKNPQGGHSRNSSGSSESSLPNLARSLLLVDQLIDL
T2 sequence (P49841 whole entry): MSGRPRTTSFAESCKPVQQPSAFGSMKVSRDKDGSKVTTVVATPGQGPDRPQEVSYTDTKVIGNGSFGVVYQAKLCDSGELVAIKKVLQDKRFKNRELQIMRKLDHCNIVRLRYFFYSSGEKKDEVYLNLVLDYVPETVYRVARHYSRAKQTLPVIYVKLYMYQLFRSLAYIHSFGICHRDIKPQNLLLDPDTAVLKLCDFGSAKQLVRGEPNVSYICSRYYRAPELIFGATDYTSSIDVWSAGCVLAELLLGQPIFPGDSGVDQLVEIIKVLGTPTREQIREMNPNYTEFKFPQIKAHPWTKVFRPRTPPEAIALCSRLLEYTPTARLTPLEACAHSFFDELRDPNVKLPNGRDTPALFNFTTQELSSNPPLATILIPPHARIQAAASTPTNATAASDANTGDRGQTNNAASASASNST
T1 sequence (Q9NSY1 whole entry): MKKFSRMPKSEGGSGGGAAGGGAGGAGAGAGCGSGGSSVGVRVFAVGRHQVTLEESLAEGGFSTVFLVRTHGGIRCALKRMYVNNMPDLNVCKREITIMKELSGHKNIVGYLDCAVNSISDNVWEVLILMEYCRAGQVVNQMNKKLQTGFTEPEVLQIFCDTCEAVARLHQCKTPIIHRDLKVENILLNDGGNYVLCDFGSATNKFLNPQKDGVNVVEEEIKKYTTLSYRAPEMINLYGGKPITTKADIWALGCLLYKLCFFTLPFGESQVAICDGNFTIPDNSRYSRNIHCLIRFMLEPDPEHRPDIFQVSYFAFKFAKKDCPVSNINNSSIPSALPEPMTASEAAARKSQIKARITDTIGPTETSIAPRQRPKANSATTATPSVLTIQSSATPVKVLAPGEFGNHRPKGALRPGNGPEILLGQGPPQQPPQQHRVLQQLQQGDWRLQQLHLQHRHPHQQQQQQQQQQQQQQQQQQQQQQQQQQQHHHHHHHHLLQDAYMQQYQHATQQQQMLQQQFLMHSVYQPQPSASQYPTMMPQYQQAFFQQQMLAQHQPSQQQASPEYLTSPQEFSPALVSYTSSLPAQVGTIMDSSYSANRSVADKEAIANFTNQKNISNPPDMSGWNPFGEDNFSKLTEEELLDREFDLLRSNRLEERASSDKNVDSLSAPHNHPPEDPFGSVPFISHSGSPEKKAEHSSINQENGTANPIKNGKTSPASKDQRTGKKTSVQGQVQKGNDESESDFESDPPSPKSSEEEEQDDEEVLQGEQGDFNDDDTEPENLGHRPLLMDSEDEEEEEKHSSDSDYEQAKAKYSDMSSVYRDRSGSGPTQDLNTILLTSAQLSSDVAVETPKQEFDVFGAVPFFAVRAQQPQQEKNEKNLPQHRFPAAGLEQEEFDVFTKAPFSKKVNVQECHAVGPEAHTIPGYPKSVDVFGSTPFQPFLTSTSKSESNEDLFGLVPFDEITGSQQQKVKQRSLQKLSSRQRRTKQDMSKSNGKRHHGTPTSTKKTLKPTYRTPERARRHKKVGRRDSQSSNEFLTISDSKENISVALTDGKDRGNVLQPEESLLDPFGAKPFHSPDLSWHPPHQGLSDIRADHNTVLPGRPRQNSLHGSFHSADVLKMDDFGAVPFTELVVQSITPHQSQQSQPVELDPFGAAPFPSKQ
Chain of CDK4/cyclin D1 (P11802 whole entry): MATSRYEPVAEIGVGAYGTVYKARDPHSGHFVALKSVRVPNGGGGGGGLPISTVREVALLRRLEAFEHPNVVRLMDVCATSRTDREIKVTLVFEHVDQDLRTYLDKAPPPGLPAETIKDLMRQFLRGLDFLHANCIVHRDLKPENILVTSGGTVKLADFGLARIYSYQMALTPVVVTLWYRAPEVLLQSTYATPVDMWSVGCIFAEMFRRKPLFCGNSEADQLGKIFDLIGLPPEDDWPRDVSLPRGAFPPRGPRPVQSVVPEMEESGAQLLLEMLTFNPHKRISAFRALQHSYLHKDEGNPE
Chain of CDK4/cyclin D1 (P24385 whole entry partner): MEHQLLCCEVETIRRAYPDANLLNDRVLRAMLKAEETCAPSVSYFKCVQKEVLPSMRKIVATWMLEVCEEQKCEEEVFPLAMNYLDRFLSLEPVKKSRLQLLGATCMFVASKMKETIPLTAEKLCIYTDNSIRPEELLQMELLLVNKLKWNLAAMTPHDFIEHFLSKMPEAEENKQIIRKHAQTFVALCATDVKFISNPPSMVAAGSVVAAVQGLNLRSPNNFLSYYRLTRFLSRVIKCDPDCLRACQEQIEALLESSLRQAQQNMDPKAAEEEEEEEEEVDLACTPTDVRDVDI

## CN1CCN(c2ccc(Nc3ncc4cc(C#N)c(=O)n(C5CCCC5)c4n3)cc2)CC1 [Compound 1, 8-cyclopentyl-2-((4-(4-methylpiperazin-1-yl)phenyl)amino)-7-oxo-7,8-dihydropyrido[2,3-d]pyrimidine-6-carbonitrile]
MDA-MB-231 cells
  cell death (Cell Tox Glo), compound alone: induced cell death
  effect of bafilomycin A1 cotreatment on cell death (Cell Tox Glo): enhanced
[1]; 2.5, 5.0, 10 μM, HCC-1937, Hs-578T, BT-474, MDA-MB-468, MDA-MB-453
  dose dependence of cell death (MTT): dose-dependent effect
[1]; Comparator 4 10 μM, Comparator 1 and 2 5 μM, Compound 1 2.5, 5.0, 10 μM
  cell death (MTT), comparison of treatments: greater potency in inducing cell death compared to both Comparator 1 and Comparator 2
CDK4/cyclin D1
  Kd: 0.18 nM
BMP2K
  Group (CETSA-MS thermal shift): Stabilization
GSK3B
  Group (CETSA-MS thermal shift): Stabilization
AAK1
  Group (CETSA-MS thermal shift): Stabilization
PyMT cells [2]
  PyMT cell numbers, treatment and recovery phase: small decrease in cell number at day 3 that then increased throughout the rest of the experiment
BT-474
  cytotoxicity at 5 µM: 50%
MDA-MB-231
  cytotoxicity at 5 µM: 60%
MDA-MB-468
  cytotoxicity at 5 µM: 65%
T-47D
  cytotoxicity at 5 µM: 60%
HCC-1937
  cytotoxicity at 5 µM: 20%
Hs578T
  cytotoxicity at 5 µM: 40%
MDA-MB-453
  cytotoxicity at 5 µM: 50%
CCL5
  time of peak CCL5 mRNA levels: ~48 h
CCL5; 24, 48 and 72 hours
  CCL5 mRNA levels: large increase
PyMT cells [3]
  cell death (MTT cell viability): increased cell death relative to DMSO
